Molecules are shown by their SMILES. Where only a bound is given, the exact number is not on record here.

Data set [1] concerns PCSC cells. In words: Cytotoxicity (LDH release) in pancreatic cancer stem cells. The class given is cell-based, human. The procedure:
LDH release was assessed by spectrophotometrically measuring the oxidation of NADH in both the cells and media. Cells were seeded in 24-well plates, and exposed to PKCδ inhibitors or vehicle. After different times of exposure, cytotoxicity was quantified by a standard measurement of LDH release with the use of the LDH assay kit (Roche Molecular Biochemicals) according to the manufacturer’s protocol. Briefly, total culture medium was cleared by centrifugation. For assay of released LDH, supernatants were collected. To assess total LDH in cells, Triton X-100 was added to vehicle (control) wells to release intracellular LDH. LDH assay reagent was added to lysates or supernatants and incubated for up to 30 min at room temperature in dark, the reaction was stopped, and the absorbance was measured at 490 nm. The percentage of LDH release was then calculated as the LDH in the supernatants as a fraction of the total LDH.
Figure 2 Effects of PKCδ inhibitors on human cancer stem cells. (A) PCSC and PrCSC cells at 80% confluence were exposed to rottlerin. DMSO served as vehicle control (Vehicle). After 24 and 72 hr of exposure, cell mass was evaluated by MTT assay. Control values were normalized to 100%. p values for comparison between treatments reached significance at 24 hr of exposure (p≤0.01) for both cell types, and remained significant at 72 hr. (B) PCSC and PrCSC cells at 50% confluence were exposed to rottlerin. Cytotoxicity was evaluated by LDH-release assay. Total maximal LDH release was assigned the arbitrary value of 100% (Control). p values for comparison between effects of treatments on LDH release reached significance at 24 hr of exposure (p<0.01) for both cell types, and remained significant at 72 hr. (C) Effects of PKCδ inhibitor on tumor cell clonogenic capacity. PCSC were exposed to vehicle or rottlerin (10 μM) for 6, 18, 24, or 48 hr. Viable cells were enumerated and re-plated in media without inhibitor, and colony numbers were quantitated 15 days later. p values for comparison of treatment effects on clonogenic capacity reached significance (p=0.005) at 18 hr of exposure and remained significant for all subsequent exposure times. The insert is a photograph of stained colonies on plates. (D) Structures of staurosporine, rottlerin, second-generation (KAM1) and third-generation (BJE6-106) derivatives. (E) PCSC and PrCSC cells at 50% confluence were exposed to KAM1 at the indicated concentrations. DMSO served as vehicle control (Vehicle). Cytotoxicity was evaluated by LDH-release assay, as in panel B. p values for comparison between treatment effects on LDH release reached significance at 24 hr of exposure to 2.5 μM KAM1 for PCSC cells and at 10 μM for PrCSC (p≤0.01), and remained significant at 72 hr for all concentrations of KAM1. Error bars represent SEM.
Background: LDH leaks from cells whose membrane has failed.

Data set [2] concerns FN5. In words: Tumor spheroid growth, FN5 melanoma. Conditions: p < 0.001. It counts as cell-based, human.
In data set [3] the test system is PC3. Nature of the data set: Tumor spheroid growth, PC3 prostate cancer. It counts as cell-based, human. Conditions: p < 0.001.
For data set [4], the system named is MCF 10A cells. Nature of the data set: Cell proliferation (MTT) of non-transformed breast epithelial cells. Conditions: for concentration at which effect on MCF 10A cell number reached significance: 48 hr, p < 0.05; for IC50: Homo sapiens, MCF-10A, 72 hr, read-out: IC50 for the parental MCF 10A cells. It counts as cell-based, human. The procedure: Cell proliferation was assessed using an MTT [3-(4,5-dimethylthiazol-2-yl)-2,5-diphenyltetrazolium bromide] assay (Roche, Mannheim, Germany). The number of viable cells growing in a single well on a 96-well microtiter plate was estimated by adding 10 μl of MTT solution (5 mg/ml in phosphate-buffered saline [PBS]). After 4 h of incubation at 37°C, the stain was diluted with 100 μl of dimethyl sulfoxide. The optical densities were quantified at a test wavelength of 570 nm and a reference wavelength of 690 nm on a multiwell spectrophotometer. In some assays, MTS was used as substrate (Promega, Madison, WI), and the absorbance of the product was monitored at 490 nm. Cell enumeration was carried out using a hemocytometer, and viable cells identified by trypan blue exclusion.
Figure 5 Effects of PKCδ inhibitors on growth and spheroid formation in non-transformed and transformed human breast epithelial cells. MCF 10A cells and cells from the derived tumorigenic line MCF 10C (also called M3), were grown to 80% confluence in 96-well plates and then exposed to rottlerin at concentrations ranging from 1 to 20 μM (A) or to BJE6-106 at concentrations ranging from 0.1 to 20 μM (B). The corresponding equivalent volume of solvent (DMSO) was used as a vehicle control (Vehicle). After 24, 48 and 72 hr of exposure, cell mass was evaluated by MTT assay. Control (vehicle) values were normalized to 100%. Error bars represent SEM. p values for comparison between vehicle and PKCδ inhibitors on MCF 10A cell number only reached significance (p < 0.05) at 48 hr at 20 μM for rottlerin, and at 1 μM for BJE6-106. In contrast, significant effects of the inhibitors on the MCF 10C cells were observed as early as 24 hr for rottlerin (at 5 μM) and for BJE6-106 (at 0.1 μM). (C) MCF 10A and MCF 10C cells were plated at 10,000 cells per well in tumor spheroid media, and spheroid formation was assessed at days 10 and 21. Representative photographs are shown. (D) MCF 10C cells were plated at 10,000 cells per well in tumor spheroid media, in the presence of rottlerin (5 μM), or BJE6-106 (1 μM or 5 μM), or DMSO vehicle (Control). Tumor spheroids were enumerated at 10 days. Representative photographs are shown. (E) Spheroid numbers were normalized to the number of spheroids in the control cultures (assigned an arbitrary value of 100%) and plotted. Error bars represent SEM. p values for comparison between vehicle and rottlerin or BJE6-106 effects on spheroid number were significant (p < 0.001).

Data set [5] can be described thus: Drug-like properties: bioavailability. Conditions: in vivo delivery.

Regarding `CC1(C)C=Cc2cc(CCn3c4ccccc4c4ccccc43)cc(C=O)c2O1` [BJE6-106, 6-(2-(9H-carbazol-9-yl)ethyl)-2,2-dimethyl-2H-chromene-8-carbaldehyde], in data set [1] (data not shown), the “increase in potency compared to rottlerin, LDH release” value was “greater than 10 fold”. Also, the “inhibition of tumor spheroid growth, FN5” value in data set [2] (BJE6-106 at 0.5-1.0 μM) was above 99.5%. In data set [3] (BJE6-106 at 0.5-1.0 μM), the “inhibition of tumor spheroid growth, PC3” value is above 96%. Besides, in data set [4], the “concentration at which effect on MCF 10A cell number reached significance” value is 1 µM and the IC50 (commonly the concentration that gives 50% inhibition) was above 20 µM. Besides, the bioavailability entry in data set [5] is “poorly bioavailable”.

Consider `CC(=O)c1c(O)c(C)c(O)c(Cc2c(O)c3c(c(C(=O)/C=C/c4ccccc4)c2O)OC(C)(C)C=C3)c1O` [rottlerin, Rottlerin, reference compound], for which, in data set [1] (dose-dependent, 24 and 72 hr), the “cytotoxicity in PCSC (LDH release)” value is on record as “induced cytotoxicity”. For the same compound, in data set [2] (Homo sapiens, rottlerin at 10 μM), the inhibition (as a rule, the drop in the measured response relative to a control, in per cent) at 10 µM was above 99.5%. The compound further returned an inhibition at 10 µM in data set [3] (Homo sapiens, PC-3, rottlerin at 10 μM) above 96%. For the same compound, in data set [4], the “concentration at which effect on MCF 10A cell number reached significance” value is 20 µM and the IC50 is above 20 µM. The bioavailability entry in data set [5] is on record as “readily bioavailable”.

(Values after article PMC3927586, “Protein kinase C-delta inactivation inhibits the proliferation and survival of cancer stem cells in culture and in vivo” (BMC Cancer, 2014).)
